Values quoted from earlier work in patent publication US20060135482A1, “Use of fosinopril to reduce cardiovascular events in disalysis patients” (priority 2002, published 2006).
Read-outs that look alike come from different tables or passages of the source. Blank lines part the entries; values can stand above or below the compound they belong to.

How the values were obtained:
[1] = patients Clcr<30 ml/min
[2] = 10 days; renal insufficiency patients
[3] = varying degrees of renal insufficiency incl. severe (Clcr<10 ml/min); relative to normal renal function
[4] = blood dialysis or peritoneal dialysis patients with terminal renal insufficiency
[5] = normal liver and kidney function; hepatic clearance increases if renal function impaired

- AUCd10/AUCd1 (accumulation ratio, area under the curve day 10/day 1) ([1]; enalapril 2.5 mg/day for 10 days, p=0.02 versus fosinopril): 1.96
SMILES: CCOC(=O)[C@H](CCc1ccccc1)N[C@@H](C)C(=O)N1CCC[C@H]1C(=O)O [enalapril]

- AUCd10/AUCd1 (accumulation ratio, area under the curve day 10/day 1) ([1]; fosinopril 10 mg/day for 10 days, comparison versus enalapril, p=0.02): 1.41
- AUCd10/AUCd1 (accumulation ratio, area under the curve day 10/day 1) ([1]; fosinopril 10 mg/day for 10 days, comparison versus lisinopril, p<0.001): 1.3
SMILES: CCC(=O)O[C@@H](O[P@](=O)(CCCCc1ccccc1)CC(=O)N1C[C@H](C2CCCCC2)C[C@H]1C(=O)O)C(C)C [fosinopril, (2S,4S)-4-cyclohexyl-1-[2-[(R)-[[(S)-2-methyl-1-(propanoyl-oxy)propyl]oxy](4-phenylbutyl)phosphinoyl]acetyl]pyrrolidine-2-carboxylic acid]
- Accumulation on repeated administration [2]: accumulates less than enalapril or lisinopril
- Total clearance of the medicament [3]: about half of that observed in an individual with normal renal function
- Pharmacokinetic parameters [4]: remain comparable with those observed in patients with mild, moderate or severe renal insufficiency
- Elimination route [5]: eliminated in equal parts via the liver and the kidneys

- AUCd10/AUCd1 (accumulation ratio, area under the curve day 10/day 1) ([1]; lisinopril 5 mg/day for 10 days, p<0.001 versus fosinopril): 2.57
SMILES: NCCCC[C@H](N[C@@H](CCc1ccccc1)C(=O)O)C(=O)N1CCC[C@H]1C(=O)O [lisinopril]
